The target of experiment [1] is T1, Erwinia sp. (DSM 97-934) creatinase variant CTsd2, N130D, M203V, I278T, F395L, SEQ ID NO: 20 (Shinella sumterensis, UniProt A0AA50CTE0, F395L/I278T/M203V/N130D).
T1 construct: variant CTsd2
T1 sequence (A0AA50CTE0 1-404 N130D/M203V/I278T/F395L): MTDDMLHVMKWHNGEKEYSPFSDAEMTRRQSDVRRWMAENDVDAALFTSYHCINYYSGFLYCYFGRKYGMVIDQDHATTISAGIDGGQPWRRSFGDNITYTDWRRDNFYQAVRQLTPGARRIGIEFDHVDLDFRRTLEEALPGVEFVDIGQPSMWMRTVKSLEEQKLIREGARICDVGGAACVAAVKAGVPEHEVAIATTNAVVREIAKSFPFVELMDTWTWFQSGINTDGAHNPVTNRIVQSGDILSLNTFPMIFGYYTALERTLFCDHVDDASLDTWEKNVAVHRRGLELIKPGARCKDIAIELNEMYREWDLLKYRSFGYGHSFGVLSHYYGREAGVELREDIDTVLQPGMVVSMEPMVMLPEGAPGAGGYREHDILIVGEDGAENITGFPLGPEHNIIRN
As to the kind of experiment: Km determination of creatinase variant with creatine (coupled enzymatic assay). Type of experiment: biochemical. Conditions: in words, CTsd2 vs wild type Erwinia creatinase. The protocol:
(§1) The activity assay for creatinase and its variants was performed by using creatine as substrate and a coupled enzymatic reaction according to Guder, W. G., et al., J Clin Chem Clin Biochem 24 (1986) 889-902.
(§2) The reaction mixture was set up by combining the following reagents:
(§3) The assay for creatinase was carried out at 25° C. and at the wavelength of 546 nm for 10 min. ΔE was calculated from the measurement points of 6 to 10 min.
(§4) For KM determination, creatinase activity was determined according to the assay procedure described in Example 3 using six different concentrations of creatine substrate: 90 mM, 45 mM, 22.5 mM, 11.3 mM, 5.6 miM and 2.8 mM.

The target of experiment [2] is T2, Erwinia sp. (DSM 97-934) creatinase variant CTsd7, F59W, N130D, M203V, I278T, F395L, SEQ ID NO: 22 (Shinella sumterensis, UniProt A0AA50CTE0, F395L/F59W/I278T/M203V/N130D).
T2 construct: variant CTsd7
T2 sequence (A0AA50CTE0 1-404 F59W/N130D/M203V/I278T/F395L): T1 sequence (A0AA50CTE0 1-404 N130D/M203V/I278T/F395L) with F59W
Described as above. The experiment is classed as biochemical. Conditions: in words, CTsd7 vs wild type Erwinia creatinase. The protocol: as §1, §2, §3, §4

Experiment [3] relates to creatinase from Pseudomonas putida. Conditions: in words; cited from earlier work.

Substitutions are numbered along the chain they refer to.

Take `CN(CC(=O)O)C(=N)N` [creatine]: the “Km value compared to wild type” value in experiment [1] and in experiment [2] was “much lower” each time. Moreover, in experiment [3], the Km value entry is recorded as “rather high”.
